From patent US6291671A, “Process for producing drug complexes” (Daiichi Pharmaceutical Co., Ltd., priority 1996, dated 2001)
Ends that are not written are not given here. * marks the point of attachment. DW‑8089 = (1S,9S)-1-amino-9-ethyl-2,3-dihydro-9-hydroxy-1H,12H-benzo[de]pyrano[3',4':6,7]indolizino[1,2-b]quinoline-10,13(9H,15H)-dione, CC[C@@]1(O)C(=O)OCc2c1cc1n(c2=O)Cc2c-1nc1cccc3c1c2[C@@H](N*)CC3; Exatecan = CC[C@@]1(O)C(=O)OCc2c1cc1n(c2=O)Cc2c-1nc1cc(F)c(C)c3c1c2[C@@H](N*)CC3

Key:
[1] = test system: Walker 256 tumor-bearing rats; assay: Releasing rate of spacers judged from efficacy of doxorubicin drug complexes or free doxorubicin at tumorous sites; type: in vivo, rat; details: for releasing rate of spacer: drug complexes bound with doxorubicin, Walker 256 tumor-bearing rats
From the text: Specific examples of the spacer are shown in the following table; however, the spacer used for the method for preparing the drug complexes of the present invention is not limited to those mentioned below, and it can be readily understood that one of ordinary skilled in the art can appropriately choose a spacer so as to achieve an optimum releasing rate of a drug compound. In the table, the left ends of peptide sequences are N-terminuses and the residues of drug compounds are bound to C-terminuses.D-Phe represents a D-phenylalanine residue and the other amino acids represent L-amino acids. The degrees of the releasing rate were judged from the degree of appearance of efficacy of the drug complexes bound with doxorubicin against Walker 256 tumor-bearing rats, or from the free doxorubicin concentration at tumorous sites of Walker 256 tumor-bearing rats.

[2] = test system: Meth A tumor-bearing mice; assay: Antitumor activity, Meth A tumor-bearing mice, single administration on day 7; type: in vivo, mouse; details: for Inhibition rate: calculated based on the drug compound; for antitumor activity (in words) / effective dose-range (in words): single administration, compared to the drug compound, per se
Protocol: Meth A tumor-bearing mice were prepared (7 mice per group) by subcutaneously transplanting 1×10^6 mouse fibrosarcoma Meth A cells into the right inguinal regions of BALB/c male mice (7-week old). On day 7, the drug complex of Example 9 dissolved in distilled water for injection was injected in the tail vein of the Meth A tumor-bearing mice every 4 days 4 times. On day 21 after the transplantation, tumor masses were excised and weighed to calculate the inhibition rate of tumor growth according to the following equation: inhibition rate of tumor growth (%)=[1-(average tumor weight of the group administered with the test sample/average tumor weight of control group)]×100.
Meth A tumor-bearing mice (6 mice per group) were prepared according to a similar manner to that of Example 11 and the antitumor activity was compared to that obtained by single administration of the drug complexes of Examples 8 and 9 once on day 7.
(§1) Meth A tumor-bearing mice (6 mice per group) were prepared according to a similar manner to that of Example 11 and the antitumor activity of the drug complex of Example 15 was examined by single administration in a similar manner to that of Example 12.
as §1, with “1,” for “11”, “41” for “15”, “in the cases of” for “by”, “12, and its antitumor activity was compared to that of the drug compound, per se.” for “12.”
Meth A tumor-bearing mice (6 mice per group) were prepared according to a similar manner to that of Example 11, and the antitumor activity was examined according to a similar method to that in Example 12 by single administration of the drug complexes of Examples 29, 43, and 44, respectively.

[3] = Example 56 (table 8), 20 mg/kg single
[4] = Example 56 (table 8), 40 mg/kg single
[5] = Example 56 (table 8), 80 mg/kg single
[6] = Example 56 (table 8), 100 mg/kg single

Substance: -Phe-Gly-
- releasing rate of spacer [1]: high releasing rate

Substance: -Tyr-Gly-
- releasing rate of spacer [1]: high releasing rate

Substance: -Gly-Gly-Gly-Gly-Gly-Gly-: spacer of drug complexes bound with doxorubicin
- releasing rate of spacer [1]: relatively high releasing rate

Substance: -Gly-Phe-
- releasing rate of spacer [1]: low releasing rate

Substance: Carboxymethyldextran Polyalcohol-Gly-Gly-Gly-Phe-NH--A' (A--NH2 =)X-8951) ({carboxymethyldextran polyalcohol}-GGGF-Exatecan; also: N-terminus linked to carboxymethyldextran polyalcohol, C-terminus amide-linked to drug residue A' (DX-8951)) [Example 43]
- Inhibition rate [2, 3]: 75%
- Inhibition rate [2, 4]: 82%
- Inhibition rate [2, 5]: 92%
- Inhibition rate [2, 6]: 94%
- antitumor activity (in words) [2]: high antitumor activity
- effective dose-range (in words) [2]: broader effective dose-range

Substance: -Gly-Gly-Phe-Gly-: spacer of drug complexes bound with doxorubicin (GGFG; not fully specified; printed as -Gly-Gly-Phe-Gly-; also: spacer between polysaccharide derivative and drug in drug complex)
- releasing rate of spacer [1]: high releasing rate
- release of the drug compound (in words) ([1]; spacer for doxorubicin): can release the drug compound at high concentration in a short time

Substance: -Pro-Gly-
- releasing rate of spacer [1]: relatively low releasing rate

Substance: -Gly-Gly-Gly-Phe-Gly-: spacer of drug complexes bound with doxorubicin (GGGFG; not fully specified; printed as -Gly-Gly-Gly-Phe-Gly-; also: spacer between polysaccharide derivative and drug in drug complex)
- releasing rate of spacer [1]: high releasing rate

Substance: -Leu-Gly-
- releasing rate of spacer [1]: high releasing rate

Substance: Carboxymethyldextran Polyalcohol-Gly-Gly-Gly-Phe-NH--A' (A--NH2 =DX-8951) [Example 29] ({carboxymethyldextran polyalcohol}-GGGF-Exatecan; also: N-terminus linked to carboxymethyldextran polyalcohol, C-terminus amide-linked to drug residue A' (DX-8951))
- Inhibition rate ([2]; Example 56 (table 8), 5 mg/kg single): 79%
- Inhibition rate ([2]; Example 56 (table 8), 10 mg/kg single): 89%
- Inhibition rate [2, 3]: 99%
- Inhibition rate ([2]; Example 56 (table 8), 30 mg/kg single): 99%
- antitumor activity (in words) [2]: high antitumor activity
- effective dose-range (in words) [2]: broader effective dose-range

Substance: Carboxymethyldextran Polyalcohol-Gly-Gly-Phe-Gly-NH--A' (A--NH2 =DW-8089) ({carboxymethyldextran polyalcohol}-GGFG-{DW‑8089}; also: N-terminus linked to carboxymethyldextran polyalcohol, C-terminus amide-linked to drug residue A' (DW-8089)) [Example 41]
- Inhibition rate ([2]; Example 55 (table 7), 3.125 mg/kg single): 61%
- Inhibition rate ([2]; Example 55 (table 7), 6.25 mg/kg single): 81%
- Inhibition rate ([2]; Example 55 (table 7), 12.5 mg/kg single): 95%
- Inhibition rate ([2]; Example 55 (table 7), 25 mg/kg single): 99%
- antitumor activity (in words) [2]: remarkably enhanced antitumor activity
- effective dose-range (in words) [2]: broader effective dose-range

Substance: α-methylcarboxymethyldextran Polyalcohol-Gly-Gly-Gly-Phe-NH--A' (A--NH2 =DX-8951) [Example 44]
- Inhibition rate [2, 3]: 75%
- Inhibition rate [2, 4]: 97%
- Inhibition rate [2, 5]: 94%
- Inhibition rate [2, 6]: 96%
- antitumor activity (in words) [2]: high antitumor activity
- effective dose-range (in words) [2]: broader effective dose-range

Substance: Carboxymethyldextran Polyalcohol-Gly-Gly-Gly-Phe-NH--A' (A--NH2 =DX-8951) [Example 8] ({carboxymethyldextran polyalcohol}-GGGF-Exatecan; also: N-terminus linked to carboxymethyldextran polyalcohol, C-terminus amide-linked to drug residue A' (DX-8951))
- Inhibition rate ([2]; Example 12 (Table 3), 5 mg/kg single): 76%
- Inhibition rate ([2]; Example 12 (Table 3), 10 mg/kg single): 85%
- antitumor activity (in words) [2]: (Polysaccharide derivative)-Gly-Gly-Gly-Phe-NH--A'> the drug compound, per se
